Common to all, as to assay type: functional
In assay [1] the test system is Rattus norvegicus. Briefly: The reduction of thrombolytic mass by the compound was calculated at a dose of 7.4 mg/Kg.
Assay [2] concerns Rattus norvegicus. Briefly: The reduction of thrombolytic mass by the compound was calculated at a dose of 7.2 mg/Kg.
Assay [3] has as its system Rattus norvegicus. Put plainly: The reduction of thrombolytic mass by the compound was calculated at a dose of 8 mg/kg.
For assay [4], the system named is Rattus norvegicus. Briefly: The reduction of thrombolytic mass by the compound was calculated at a dose of 5.4 mg/Kg.
The subject of assay [5] is Rattus norvegicus. Briefly: The reduction of thrombolytic mass by the compound was calculated at a dose of 5.3 mg/Kg.
For assay [6], the system named is Rattus norvegicus. Briefly: The reduction of thrombolytic mass by the compound was calculated at a dose of 6 mg/kg.

Square brackets hold non-standard residues; d marks the D form. Peptide text beside a SMILES is read from it. Tpi = O=C(O)[C@@H]1Cc2c([nH]c3ccccc23)CN1

In the case of `C[C@H](NC(=O)[C@@H]1Cc2c([nH]c3ccccc23)CN1)C(=O)N[C@@H](CCCN=C(N)N)C(=O)N1CCC[C@H]1C(=O)N[C@@H](C)C(=O)N[C@@H](CCCCN)C(=O)O` (H-[Tpi]ARPAK-OH), the Activity with Rattus norvegicus [1] was 16.13 mg. For `C[C@H](NC(=O)[C@@H]1CCCN1C(=O)[C@H](CCCN=C(N)N)NC(=O)CNC(=O)[C@@H]1Cc2c([nH]c3ccccc23)CN1)C(=O)N[C@@H](CCCCN)C(=O)O` (H-[Tpi]GRPAK-OH), the Activity with Rattus norvegicus [2] was 19.7 mg. With `C[C@H](NC(=O)[C@@H]1CCCN1C(=O)[C@H](CCCN=C(N)N)NC(=O)[C@H](CCC(N)=O)NC(=O)[C@@H]1Cc2c([nH]c3ccccc23)CN1)C(=O)N[C@@H](CCCCN)C(=O)O` (H-[Tpi]QRPAK-OH), the Activity in the assay on Rattus norvegicus [3] is 17.27 mg. With H-ARPAK-OH, the Activity in the assay with Rattus norvegicus [4] was 18.84 mg. For the molecule H-GRPAK-OH, the Activity with Rattus norvegicus [5] is recorded as 25.9 mg. Consider H-QRPAK-OH, for which the Activity in the assay with Rattus norvegicus [6] was 21.28 mg.

The values above are taken from ChEMBL document CHEMBL1134885, “Synthesis and thrombolytic activity of pseudopeptides related to fibrinogen fragment” (2002).
